Earlier results in paper PMC11010885, “Functional Analysis and Tissue-Specific Expression of Calcitonin and CGRP with RAMP-Modulated Receptors CTR and CLR in Chickens” (Animals : an Open Access Journal from MDPI, 2024).

Tested on: RAMP1- and RAMP3-derived amylin receptors
Details: ref [51],[53]; cited from earlier work
Method: In mammals, CTR functions as a receptor for three distinct hormones: CT, CGRP, and amylin (not explored in this study). The specific affinity spectrum is determined by its co-expression with RAMPs. Although CTR alone is a receptor for CT that is involved in bone homeostasis, CTRs in complex with RAMP1–3 are high-affinity receptors for amylin, a peptide involved in the regulation of food intake. […] The CTR + RAMP1 complex is a ...

## human CT: human CT, cited from the literature
  affinity: low affinity
